Paper PMC11678245, “The Molecular Basis of the Intrinsic and Acquired Resistance to Azole Antifungals in Aspergillus fumigatus” (Journal of Fungi, 2024)
“And” between values parts separate entries of the source, which are not always exact repeats. Equal values may be shown once. “Also recorded” adds a separate entry of the source. Read-outs that look alike come from different tables or passages of the source.

Tests used:
AfCYP51B-6×His = target: T1, AfCYP51B-6×His (Aspergillus fumigatus, UniProt E9QY26); test: Type I binding of substrates (difference spectra); conditions: for type I binding spectrum peak / type I binding spectrum trough: AfCYP51B-6×His; for affinity of AfCYP51B for eburicol versus lanosterol: ratio of Ks values
T1 sequence (E9QY26 1-524): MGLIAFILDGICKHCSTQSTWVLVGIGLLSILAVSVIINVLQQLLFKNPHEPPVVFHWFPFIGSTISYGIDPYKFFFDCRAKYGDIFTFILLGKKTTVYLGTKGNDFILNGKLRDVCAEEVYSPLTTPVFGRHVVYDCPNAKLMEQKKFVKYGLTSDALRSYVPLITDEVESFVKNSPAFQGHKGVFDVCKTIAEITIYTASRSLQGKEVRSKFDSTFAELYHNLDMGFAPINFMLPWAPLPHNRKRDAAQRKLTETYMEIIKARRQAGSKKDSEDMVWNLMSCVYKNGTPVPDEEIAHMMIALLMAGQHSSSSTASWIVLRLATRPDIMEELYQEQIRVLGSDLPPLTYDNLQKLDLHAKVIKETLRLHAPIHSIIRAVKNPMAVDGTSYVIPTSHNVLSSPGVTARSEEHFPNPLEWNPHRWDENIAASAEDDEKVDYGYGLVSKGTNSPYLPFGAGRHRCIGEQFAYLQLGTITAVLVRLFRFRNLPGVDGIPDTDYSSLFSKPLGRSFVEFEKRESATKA
Experimental: (§1) The concentration of AfCYP51A and AfCYP51B, purified using Ni-NTA affinity chromatography and used for the spectrophotometric type I and type II binding assays, was calculated using an extinction co-efficient of λ417nm = 117 mM^−1 cm^−1 applied to the absolute absorption spectrum of the preparations. In addition, the amount of “active” cytochrome P450 enzyme was determined using the carbon monoxide (CO) binding spectra of these preparations.
(§2) Type I binding of substrates lanosterol and eburicol in the active site of the Ni-NTA affinity-purified AfCYP51A and AfCYP51B enzymes was assessed using the method of Warrilow et al.. Titrations of 5 μM AfCYP51-6×His protein with lanosterol or eburicol (1 to 250 μM) were measured using a Cary 300 UV–Visible Spectrophotometer (Agilent Technologies, Santa Clara, CA, USA). Substrate saturation curves were constructed by plotting the maximal ∆Apeak−trough obtained between 350 and 500 nm, allowing for a change in the reaction volume during the titration. The substrate binding constant (KS) was calculated by nonlinear regression (Levenberg–Marquardt algorithm) applied to the Michaelis–Menten equation or the Hill equation. GraphPad Prism 9.2.0 software was used to identify the best fit for the data.

AfCYP51A-6×His = AfCYP51A-6×His (Aspergillus fumigatus, UniProt Q4WNT5); test: Type I binding of substrates (difference spectra); design: Full-length codon-optimised AfCYP51A-6×His and AfCYP51B-6×His were constitutively co-expressed; made in house; conditions: AfCYP51A-6×His 5 µM, concentrations up to 300 μM
Chain of AfCYP51A-6×His (Q4WNT5 whole entry): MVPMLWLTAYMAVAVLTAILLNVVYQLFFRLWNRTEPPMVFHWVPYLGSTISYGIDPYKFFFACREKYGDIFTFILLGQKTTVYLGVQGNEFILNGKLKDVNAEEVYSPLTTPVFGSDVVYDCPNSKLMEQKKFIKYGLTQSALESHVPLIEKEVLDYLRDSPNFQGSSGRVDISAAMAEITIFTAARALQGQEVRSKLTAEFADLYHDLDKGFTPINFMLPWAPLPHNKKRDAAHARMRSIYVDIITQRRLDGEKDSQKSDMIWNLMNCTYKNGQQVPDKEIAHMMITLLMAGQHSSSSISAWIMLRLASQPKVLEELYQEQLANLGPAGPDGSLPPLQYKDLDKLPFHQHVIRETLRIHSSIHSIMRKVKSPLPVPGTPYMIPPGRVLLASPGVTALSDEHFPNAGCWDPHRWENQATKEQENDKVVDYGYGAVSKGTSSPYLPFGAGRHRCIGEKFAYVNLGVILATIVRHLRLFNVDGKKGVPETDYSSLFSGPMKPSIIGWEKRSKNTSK
Experimental: as §1
as §2, with “Titrations of 5 μM AfCYP51-6×His protein with lanosterol or eburicol (1 to 250 μM) were measured using a Cary 300 UV–Visible Spectrophotometer (Agilent Technologies, Santa Clara, CA, USA).” left out

[1] = AfCYP51B-6×His 5 μM, Michaelis–Menten equation

Compound | Kd (AfCYP51B-6×His) | type I binding spectrum peak (AfCYP51B-6×His) | type I binding spectrum trough (AfCYP51B-6×His) | ΔAmax (type I binding) (AfCYP51B-6×His; [1]) | ΔAmax (type I binding) (AfCYP51B-6×His; AfCYP51B-6×His 5 μM, Michaelis–Menten equation, listed as eburicol) | affinity of AfCYP51B for eburicol versus lanosterol (AfCYP51B-6×His) | type I binding response (AfCYP51A-6×His) | Kd (AfCYP51B-6×His; AfCYP51B-6×His 5 μM, type I binding, Michaelis–Menten equation, read-out: Ks)
C=C(CC[C@@H](C)[C@H]1CC[C@@]2(C)C3=C(CC[C@]12C)[C@@]1(C)CC[C@H](O)C(C)(C)C1CC3)C(C)C (stereo partly shown) [Eburicol, eburicol] | 71 µM | 387 nm | 422 nm | 0.161 | 0.16 | at least 6 fold | did not give the expected type I binding response; also recorded: did not give a type I binding response | 
CC(C)=CCC[C@@H](C)[C@H]1CC[C@@]2(C)C3=C(CC[C@]12C)[C@@]1(C)CC[C@H](O)C(C)(C)[C@@H]1CC3 [Lanosterol, lanosterol] |  | 386 nm | 423 nm | 0.22 and 0.219 |  | approximately 6 fold | did not give the expected type I binding response; also recorded: did not give a type I binding response | 477 µM
